Laboratory results: patent US7745450B2, “Pyrazolo[4,3-d]pyrimidines, processes for their preparation and methods for therapy” (Institute of Experimental Botany, priority 2002, dated 2010)
Read-outs that look alike come from different tables or passages of the source.

Key:
DNA synthesis = assay: Inhibition of DNA synthesis in Xenopus egg extracts; assay type: biochemical; details: [α-32P]dATP incorporation after 3 h
Experimental: Metaphase-arrested Xenopus egg extracts were prepared as described previously by Blow “J. Cell Biol.” 1993; 122:993 and stored in liquid nitrogen. Demembranated Xenopus sperm nuclei were prepared as described. by Blow & Laskey “Cell” 1986; 47:577. After thawing, extracts were supplemented with 25 mM phosphocreatine, 5 μg/ml creatine phosphokinase, 250 μg/ml cycloheximide, [α-^32P]dATP (for DNA synthesis assays). Demembranated sperm nuclei were added to a final sperm concentration of 3 ng/μl DNA extract and CDK inhibitor tested was then added at different concentrations. […] DNA synthesis was assessed by releasing extract into interphase by the addition of 0.3 mM CaCl2 and measuring the total amount of [α-^32P]dATP incorporation after 3 h by TCA co-precipitation.

B16 = assay: In vitro cytotoxic activity, Calcein AM; assay type: cell-based; details: three days
[1] = target: cdc2a-MS protein (plant CDK, cdc2Ms kinase) (Vicia faba, UniProt A0AAV0YZ35); assay: CDK inhibitory activity on plant kinases (plant CDK); assay type: biochemical; details: histone H1 phosphorylation
cdc2a-MS protein (plant CDK, cdc2Ms kinase), sequence (A0AAV0YZ35 1-294): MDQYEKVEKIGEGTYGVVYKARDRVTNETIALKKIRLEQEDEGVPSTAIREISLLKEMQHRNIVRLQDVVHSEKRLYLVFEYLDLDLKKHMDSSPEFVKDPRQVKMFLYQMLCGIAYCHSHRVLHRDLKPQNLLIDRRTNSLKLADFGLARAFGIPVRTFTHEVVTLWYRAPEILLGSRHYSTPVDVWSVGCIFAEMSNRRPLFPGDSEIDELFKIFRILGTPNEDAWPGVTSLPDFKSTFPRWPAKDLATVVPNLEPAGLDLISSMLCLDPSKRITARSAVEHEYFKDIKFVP
Experimental: Protein extraction and purification of pant CDK by binding to p13^suc1-beads or immunopurification with an antibody specific to the cdc2a-MS protein was carried out as described previously (Bögre et al. 1997, Plant Physiol. 113, 1997, 841-852). The MMK1 protein kinase was purified with a specific antibody from Vicia faba extracts as described by Bögre et al. 1997a, Plant Cell 9, 75-83). Protein kinase activity was measures as described above in Example 20. The quantification of radioactivity incorporated into histone H1 or myelin basic protein was undertaken using phosphoimager (FIG. 2).

[2] = tested on: CEM (human lymphoblastoid leukemia); assay: In vitro cytotoxic activity, Calcein AM; assay type: cell-based; details: three days
In short: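 CEM cells were seeded at 10^4/well in DMEM + 10% FBS and exposed to six concentrations from 200 to 0.2 μM, in triplicate, for 3 days at 37 °C and 5% CO2. Viable cells were then measured by Calcein AM fluorescence after 1 h loading.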

normal human lymphocytes = assay: Immunosuppressive activity, 3H-thymidine incorporation in concanavalin A activated lymphocytes; assay type: cell-based; details: Lymphocyte, 72 hours, [3H]-TdR, read-out: Human lymphocytes ED50
[3] = tested on: human melanoma cell line Arn8 (p53-responsive reporter); assay: p53-dependent transcriptional activity, β-galactosidase reporter; assay type: cell-based; details: concentration inducing maximum of β-galactosidase activity
Experimental: Cell lines established from the human cervical carcinoma (HeLa), human breast carcinoma (MCF-7, BT549 and BR474), human osteosarcoma (HOS), human colon carcinoma (HT29), murine fibroblasts (T221acZ) and the human melanoma (Arn8) cell lines were cultured in Dubecco's Modified Eagle Medium (DMEM) supplemented with 10% fetal bovine serum. Tested compounds were added from 50 mM stock solution in dimethyl-sulphoxide (DMSO) into the culture medium at final concentration 20 μM. Control cells received an equivalent volume of DMSO.
β-galactosidase activity of human melanoma cell line […] T221acZ (both stabile transfected with a p53-responsive reporter construct pRGCΔfoslacZ) (Frebung et al., Cancer Res., 52, 1992-6976) was determined. For the determination of total β-galactosidase activity, cells were lysed by 3 freeze-thaw cycles in 0.25 M Tris pH 7.5, and lysates were assayed as described by Sambrook et al., Mol. cloning, New York, 1989.
Effect of 25 and related compounds on activation of p53 protein was also analyzed in human melanoma cell line Arn8 and murine fibroblast cell line T22LacZ expressing β-galactosidase under control of p53 responsive promoter. Induction of wt p53 in these cells treated with 20 μM 25 (6, 12 and 24 hrs) leads to activation of responsive promoter and consequently to expression of β-galactosidase. Arn8 and T221acZ cells treated with 25 were fixed and examined microscopically for β-galactosidase activity using X-gal substrate leading to about 25% blue-colored cells compared to less than 1% of blue-colored cells in DMSO-treated control cells (data not shown). The total β-galactosidase activity in Arn8 cells was also assessed using colorimetric assay.

MMK1 protein kinase = MMK1 protein kinase (Vicia faba, UniProt A0AAV1B7B8); assay: MMK1 protein kinase activity; assay type: biochemical
MMK1 protein kinase, sequence (A0AAV1B7B8 1-394): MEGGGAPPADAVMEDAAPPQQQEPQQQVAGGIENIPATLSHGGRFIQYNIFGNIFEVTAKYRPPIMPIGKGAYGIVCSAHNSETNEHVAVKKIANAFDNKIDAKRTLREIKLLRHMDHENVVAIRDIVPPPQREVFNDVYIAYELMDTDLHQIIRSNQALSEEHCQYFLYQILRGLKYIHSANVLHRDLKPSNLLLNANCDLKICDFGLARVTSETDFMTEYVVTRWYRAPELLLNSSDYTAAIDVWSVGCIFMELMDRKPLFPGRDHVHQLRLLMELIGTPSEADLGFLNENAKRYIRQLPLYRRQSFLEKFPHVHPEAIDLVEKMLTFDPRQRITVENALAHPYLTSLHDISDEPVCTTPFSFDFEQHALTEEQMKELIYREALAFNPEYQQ
In short: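 Plant CDK was purified from extracts on p13^suc1-beads or by anti-cdc2a-MS immunopurification, and MMK1 was immunopurified from Vicia faba extracts. Kinase activity was read as radioactivity incorporated into histone H1 or myelin basic protein, quantified by phosphoimager.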

[4] = tested on: Cytokinin-dependent tobacco callus Nicotiana tabacum L. cv. Wisconsins 38; assay: Tobacco callus bioassay for cytotoxicity (herbicidal activity); assay type: cell-based; details: Nicotiana tabacum, 672 h
In short: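 Compounds were prepared in DMSO as a 10^−3 M stock in water. Growth inhibition was scored from fresh callus weight gain after four weeks, with five replicates and the test run at least twice.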

IκB-α kinase = IκB-α kinase inhibition, in vitro kinase assay; assay type: biochemical
cdk1/cyclin B (CDC2) = cdk1/cyclin B (CDC2) (Homo sapiens, UniProt P06493); assay: CDK inhibition assay, cdk1/cyclin B (CDC2) kinase, histone phosphorylation; assay type: biochemical
cdk1/cyclin B (CDC2), sequence (P06493 whole entry, species assumed): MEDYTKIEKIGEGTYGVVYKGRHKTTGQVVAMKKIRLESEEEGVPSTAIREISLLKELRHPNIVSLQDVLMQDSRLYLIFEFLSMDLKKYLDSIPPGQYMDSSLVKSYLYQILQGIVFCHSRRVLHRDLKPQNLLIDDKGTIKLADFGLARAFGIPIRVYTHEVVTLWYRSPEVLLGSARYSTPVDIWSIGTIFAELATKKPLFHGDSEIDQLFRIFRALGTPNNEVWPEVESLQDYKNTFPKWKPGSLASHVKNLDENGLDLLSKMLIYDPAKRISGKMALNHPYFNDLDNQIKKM
cdk1/cyclin B (CDC2), sequence (P14635 whole entry partner, species assumed): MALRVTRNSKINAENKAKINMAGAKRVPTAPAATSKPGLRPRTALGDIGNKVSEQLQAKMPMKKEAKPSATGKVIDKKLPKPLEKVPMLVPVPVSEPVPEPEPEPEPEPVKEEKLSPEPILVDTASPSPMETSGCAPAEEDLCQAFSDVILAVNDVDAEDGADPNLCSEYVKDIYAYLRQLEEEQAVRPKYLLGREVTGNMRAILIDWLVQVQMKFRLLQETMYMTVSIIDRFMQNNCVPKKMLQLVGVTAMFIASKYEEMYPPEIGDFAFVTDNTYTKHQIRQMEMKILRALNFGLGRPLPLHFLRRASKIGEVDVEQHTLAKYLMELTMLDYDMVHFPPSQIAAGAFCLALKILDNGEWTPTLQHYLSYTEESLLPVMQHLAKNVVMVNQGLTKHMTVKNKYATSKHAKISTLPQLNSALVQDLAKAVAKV
In short: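 Human cdk1/cyclin B activity measured with 1 mg/ml histone substrate, 15 μM ATP plus [γ-32P]ATP, in HEPES pH 7.4 buffer with 10 mM MgCl2. Phosphorylation quantified by phosphorimaging; activity expressed as % of maximum, IC50 from dose-response curves by graphic analysis.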

β-adrenergic receptors = assay: Modulation of isoproterenol-induced cAMP synthesis in rat C6 glioma; assay type: cell-based; details: cAMP synthesis induced by 5 μM (−) isoproterenol, simultaneous addition, 30 min
Experimental: Mechanism of action of novel compounds is presented on FIG. 3. Rat C6 glioma (ATCC N° CCL107) was cultivated in monolayer in serum-free chemically defined medium containing Ham's F10/minimal essential medium (1:1 vol/vol), 2 mM L-glutamine, 1% (vol/vol) minimal essential medium vitamins (100×), 1% (vol/vol) minimal essential medium nonessential amino acids (100×), 100 U/ml penicillin, 100 μg/ml streptomycin and 30 nM sodium selenide. Incubation was at 37° C. in a humidified atmosphere. Assays were performed in the logarithmic growth phase at a density of 2.5×10^5 cells/cm^2. Intracellular cAMP synthesis was induced by addition of 5 μM (−) isoproterenol. After 30 min incubation at 37° C. the medium was removed and the cellular amount of cAMP determined using the cAMP-enzyme immunoassay kit of Amersham. The I50 is determined from a dose-response curve in duplicate.
The effect of seven purine-analogs was measured after simultaneous addition with isoproterenol.

[5] = read-out: 10^−5 M BAP IC50, 10^−5 M 6-benzylaminopurine, four weeks
[6] = read-out: 10^−6 M BAP IC50, 10^−6 M 6-benzylaminopurine, four weeks

Work on `CC(C)c1n[nH]c2c(NCc3cccc(Cl)c3O)nc(NCCCO)nc12` yielded an IC50 (DNA synthesis) of 3700 nM.

`CC(C)c1n[nH]c2c(Nc3ccc(Cl)c(N)c3)nc(NCCCO)nc12` showed an IC50 (DNA synthesis) of 400 nM.

Molecule `COc1cc(O)c(CNc2nc(N[C@@H](CO)C(C)C)nc3c(C(C)C)n[nH]c23)c(O)c1` has a GI50 (B16) of 2700 nM, an IC50 [1] of 0.7 nM and a GI50 [2] of 1200 nM.

In the case of `Cc1n[nH]c2c(NCc3ccccc3)nc(N[C@@H](CO)C(C)C)nc12`, the EC50 (normal human lymphocytes) is reported as 6500 nM, the GI50 (B16; Mus musculus, B16, 72 h) is reported as 4300 nM and the “Max β-Gal. Activtity Conc.” value [3] is reported as 6.5 µM. The IC50 (MMK1 protein kinase) was 400 nM and the GI50 ([2]; Homo sapiens, 72 h) was 2800 nM.

In the case of `CC[C@H](CO)Nc1nc(NCc2ccc(Cl)c(N)c2N)c2[nH]nc(C(C)C)c2n1`, the IC50 [4, 5] is reported as 49000 nM, the IC50 [4, 6] is reported as 8300 nM and the IC50 (IκB-α kinase) is reported as 400 nM. The IC50 (cdk1/cyclin B (CDC2)) was 200 nM and the IC50 (DNA synthesis) was 300 nM.

`CC[C@H](CO)Nc1nc(NCc2cc(O)c(OC)cc2O)c2[nH]nc(C(C)C)c2n1` showed a GI50 (B16) of 5700 nM, an IC50 [1] of 2 nM and a GI50 [2] of 3500 nM.

Work on `CC(C)c1n[nH]c2c(Nc3cccc(Cl)c3)nc(Cl)nc12` [Example 11, 7-(3-chloroanilino)-5-chloro-3-isopropylpyrazolo[4,3-d]pyrimidine] yielded a melting point of 257 to 259 °C.

For `CC(C)c1n[nH]c2c(NCc3ccccc3)nc(NCCN)nc12` [Example 14, 7-benzylamino-5-(2-aminoethyl)amino-3-isopropylpyrazolo[4,3-d]pyrimidine], the IC50 [4, 5] was > 50000 nM, the IC50 [4, 6] was > 50000 nM and the melting point was 145 to 147 °C. For the same molecule, the IC50 (IκB-α kinase) was 1200 nM, the “Effect: activation” value (β-adrenergic receptors) was 1.3-fold activation and the IC50 (cdk1/cyclin B (CDC2)) was 400 nM.

Molecule `COc1ccc(CNc2nc(NCc3ccc(OC)cc3)c3[nH]nc(C(C)C)c3n2)cc1` [Example 17, 5,7-di[(4-methoxybenzyl)amino]-3-isopropylpyrazolo[4,3-d]pyrimidine] has a melting point of 60 to 85 °C.
